The assay deals with PLC/PRF/5 and MHCC-97L cells. In words: Intracellular ROS level in LANCL1-KD HCC cells. The assay is classed as cell-based, human. The note with it: addition of oxidizing agent.

For `CC(C)(C)OO` [TBHP, tert-Butyl hydroperoxide], the ROS levels result is listed as “significantly increased”.

For the origin of these results see patent publication US20230348622A1, “USE OF LANCL1 AND ANTIBODIES THEREOF AS A DIAGNOSTIC AND THERAPEUTIC TARGET FOR THE MANAGEMENT AND TREATMENT OF CANCER” (The University of Hong Kong, priority 2022, published 2023).
